Data set [1] in a line: GPC glucuronidation in human liver microsomes (enzyme kinetics, species comparison). The following applies: human, human liver microsomes, pH 7.4. On the technique in general: Liver microsomes are vesicles of endoplasmic reticulum, rich in cytochrome P450 enzymes.
Data set [2] deals with glucuronidation (GPCG formation). Described as above. Particulars: human, human liver microsomes, pH 7.4.
Data set [3] deals with human liver microsomes (HLMs). Described as above. Particulars: 30 min.
The subject of data set [4] is recombinant human UGT1A1, 1A3, 1A6, 1A7, 1A8, 1A9, 1A10, 2B7, and 2B17. Put plainly: Recombinant human UGT enzyme assay of GPC glucuronidation, remaining isoenzymes. The class given is in vitro ADME. The following applies: remaining recombinant UGT isoenzymes 0.1 mg/mL, GPC 1 and 10 μM. The method, then:
(§1) The glucuronidation incubation system consisted of Tris-HCl buffer (50 mM, pH = 7.4), magnesium chloride (4 mM), alamethicin (12.5 μg/mL), human liver microsomes (0.5 mg/mL), UDPGA (100 mM), and GPC (20 μM).
(§2) The glucuronidation metabolic activity of GPC at two concentration levels (1 and 10 μM) was determined using an incubation system with 10 recombinant human UGT enzymes (UGT1A1, 1A3, 1A4, 1A6, 1A7, 1A8, 1A9, 1A10, 2B7, 2B17) (0.1 mg/mL). The incubation conditions were the same as in Section 4.3, except for the protein concentration of 0.1 mg/mL. Lastly, metabolites were detected using LC–MS/MS.

A short description of data set [5]: GPC glucuronidation in rabbit liver microsomes (enzyme kinetics, species comparison). Particulars: New Zealand, rabbit, rabbit liver microsomes, pH 7.4.
Data set [6] deals with rabbit liver microsomes (RaLM). The description is as above. The following applies: RaLMs 0.2 mg/mL, GPC 2–200 μM, 30 min, substrate inhibition fit.
Data set [7] deals with glucuronidation (GPCG formation). The description is as above. Particulars: New Zealand, rabbit, rabbit liver microsomes, pH 7.4.
Data set [8] is described as follows: GPC glucuronidation in dog liver microsomes (enzyme kinetics, species comparison). Particulars: Beagle, dog, dog liver microsomes, pH 7.4.
Data set [9] has as its system dog liver microsomes (DLM). The data set is described as above. Particulars: 30 min.
The subject of data set [10] is glucuronidation (GPCG formation). The description is as above. The following applies: Beagle, dog, dog liver microsomes, pH 7.4.
Data set [11] is described as follows: GPC glucuronidation in rat liver microsomes (enzyme kinetics, species comparison). Particulars: Sprague-Dawley, rat, rat liver microsomes, pH 7.4.
Data set [12] concerns glucuronidation (GPCG formation). Described as above. The following applies: Sprague-Dawley, rat, rat liver microsomes, pH 7.4.
In data set [13] the test system is rat liver microsomes (RLM). The description is as above. Particulars: 30 min.
The nature of data set [14]: GPC glucuronidation in pig liver microsomes (enzyme kinetics, species comparison). Particulars: minipig, pig, pig liver microsomes, pH 7.4.
The subject of data set [15] is pig liver microsomes (PLM). The data set is described as above. The following applies: 30 min.
Data set [16] relates to glucuronidation (GPCG formation). The data set is described as above. Particulars: pig, pig liver microsomes, pH 7.4.
The next data set deals with T1, recombinant human UGT1A4 (Homo sapiens, UniProt P22310).
T1 construct: purchased Cypex (Scotland, UK)
T1 sequence (P22310 29-534): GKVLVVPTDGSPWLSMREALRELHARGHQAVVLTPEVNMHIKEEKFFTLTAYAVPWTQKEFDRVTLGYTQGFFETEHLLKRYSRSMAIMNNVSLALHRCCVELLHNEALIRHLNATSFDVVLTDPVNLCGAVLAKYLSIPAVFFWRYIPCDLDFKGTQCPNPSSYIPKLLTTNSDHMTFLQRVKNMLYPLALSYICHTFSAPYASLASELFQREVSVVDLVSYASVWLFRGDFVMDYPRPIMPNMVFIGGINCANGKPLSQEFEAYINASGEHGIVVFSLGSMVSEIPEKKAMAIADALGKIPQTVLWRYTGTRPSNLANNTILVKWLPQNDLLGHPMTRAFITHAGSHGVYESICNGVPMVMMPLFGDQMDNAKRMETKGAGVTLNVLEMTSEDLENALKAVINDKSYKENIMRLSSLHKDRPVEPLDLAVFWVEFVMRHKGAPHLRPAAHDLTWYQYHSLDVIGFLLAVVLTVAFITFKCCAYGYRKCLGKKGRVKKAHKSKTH
As to the kind of experiment: Recombinant human UGT enzyme assay of GPC glucuronidation, UGT1A4. The class given is in vitro ADME. The following applies: recombinant UGT1A4 0.1 mg/mL, GPC 1 and 10 μM. The protocol:
as §1, §2

A short description of data set [17]: GPC glucuronidation in bovine liver microsomes (enzyme kinetics, species comparison). Particulars: bovine, bovine liver microsomes, pH 7.4.
The test system of data set [18] is bovine liver microsomes (BLM). Described as above. Particulars: 30 min.
Data set [19] has as its system glucuronidation (GPCG formation). The data set is described as above. The following applies: bovine, bovine liver microsomes, pH 7.4.
A short description of data set [20]: GPC glucuronidation in monkey liver microsomes (enzyme kinetics, species comparison). Particulars: monkey, monkey liver microsomes, pH 7.4.
Data set [21] concerns monkey liver microsomes (MkLM). The description is as above. Particulars: 30 min.
Data set [22] concerns glucuronidation (GPCG formation). Described as above. Particulars: monkey, monkey liver microsomes, pH 7.4.
A short description of data set [23]: GPC glucuronidation in mouse liver microsomes (enzyme kinetics, species comparison). The following applies: ICR/CD-1, mouse, mouse liver microsomes, pH 7.4.
In data set [24] the test system is mouse liver microsomes (MLM). The description is as above. Particulars: MLMs 0.2 mg/mL, GPC 2–200 μM, 30 min, substrate inhibition fit.
Data set [25] relates to glucuronidation (GPCG formation). The data set is described as above. Particulars: ICR/CD-1, mouse, mouse liver microsomes, pH 7.4.
The subject of another data set is GPC glucuronidation. As to the kind of experiment: Chemical inhibition of GPC glucuronidation in human liver microsomes. Particulars: human, pH 7.4. The method, then:
(§3) The glucuronidation incubation system consisted of Tris-HCl buffer (50 mM, pH = 7.4), magnesium chloride (4 mM), alamethicin (12.5 μg/mL), human liver microsomes (0.5 mg/mL), UDPGA (100 mM), and GPC (20 μM). […] The incubation system was first preincubated at 37 °C for 3 min before adding UDPGA to initiate the reaction. The reaction was terminated […] with the addition of an equal volume of iced acetonitrile (containing 30 μM PPT). After vortexing for 3 min, the supernatant obtained was centrifuged at 14,300 rpm for 15 min at 4 °C and used for LC–MS/MS analysis.
(§4) Glucuronidation metabolism of GPC in HLMs was inhibited using hecogenin, phenylbutazone, fluconazole, and magnolol. The concentrations of the four inhibitors were set to 1, 10, 50, and 200 μM, and the concentration of GPC was set to 15 μM. The incubation time and protein concentration were […], respectively. All the rest of the incubation conditions were as in Section 4.3. The incubation without inhibitor but with the same volume of DMSO was set to be the solvent control.

For data set [26], the system named is GPC glucuronidation in human liver microsomes. The data set is described as above. The following applies: GPC 15 μM, HLMs 0.2 mg/mL, 30 min. The protocol:
as §3, §4

The mark [27] stands for this setting: inhibitor 1, 10, 50, and 200 μM.

Regarding `CC(C)=C1CC=C([C@H]2CC[C@]3(C)[C@@H]2CC[C@@H]2[C@@]4(C)CC[C@H](O)C(C)(C)[C@@H]4CC[C@]23C)C1=O` [GPC, Gypensapogenin C], the microsomal CLint (as a rule, the rate of metabolic loss divided by the concentration) in data set [1] was found to be 27 µL/min/mg; in data set [5], 304 µL/min/mg; in [8] it was 2120 µL/min/mg; in [11] it was 40 µL/min/mg; in [14], 147 µL/min/mg; in data set [17] it was 259 µL/min/mg. Besides, the microsomal CLint in data set [20] turned out to be 77 µL/min/mg; in [23] it was 690 µL/min/mg. Also, the Km (usually the substrate concentration at which the rate is half of its maximum) at 30 min in [2] was determined as 15.4 ± 5.26 µM; in [7], 16.2 ± 3.77 µM; in data set [10], 9.56 ± 2.83 µM; in [12] it was 94.1 ± 89.8 µM; in data set [16] it was 9.58 ± 2.32 µM; in data set [19] it was 12.2 ± 5.16 µM. The Km at 30 min in data set [22] worked out at 107 ± 73.2 µM; in data set [25] it was 10 ± 2.1 µM. Further, the Vmax (in general, the top rate of the reaction or transport when substrate is in excess) came out at 0.42 ± 0.09 nmol/min/mg in [3] (HLMs 0.2 mg/mL, GPC 2–200 μM, substrate inhibition fit); 4.92 ± 0.57 nmol/min/mg in [6]; 20.28 ± 2.57 nmol/min/mg in data set [9] (DLMs 0.2 mg/mL, GPC 2–200 μM, substrate inhibition fit); 3.80 ± 3.01 nmol/min/mg in data set [13] (RLMs 0.2 mg/mL, GPC 2–200 μM, substrate inhibition fit); 1.41 ± 0.18 nmol/min/mg in data set [15] (PLMs 0.2 mg/mL, GPC 2–200 μM, substrate inhibition fit); 3.17 ± 0.89 nmol/min/mg in data set [18] (BLMs 0.2 mg/mL, GPC 2–200 μM, substrate inhibition fit). The Vmax in data set [21] (MkLMs 0.2 mg/mL, GPC 2–200 μM, substrate inhibition fit) was found to be 8.29 ± 4.69 nmol/min/mg; in [24], 6.93 ± 0.69 nmol/min/mg. Moreover, the “GPC glucuronidation product generation (semiquantitative, peak area ratio)” value is given as “Trace amounts” in data set [3] (human liver microsomes 0.2 mg/mL, GPC 10 and 50 μM); “highest amounts” in [9] (dog liver microsomes 0.2 mg/mL, GPC 10 and 50 μM); “Trace amounts” in [13] (rat liver microsomes 0.2 mg/mL, GPC 10 and 50 μM); “Trace amounts” in data set [15] (pig liver microsomes 0.2 mg/mL, GPC 10 and 50 μM); “Trace amounts” in data set [18] (bovine liver microsomes 0.2 mg/mL, GPC 10 and 50 μM); “Trace amounts” in data set [21] (monkey liver microsomes 0.2 mg/mL, GPC 10 and 50 μM). Moreover, the “catalytic activity for GPC glucuronidation” value in [4] is reported as “none of the remaining UGT isoenzymes showed activity”; at recombinant human UGT1A4 it was “highest catalytic activity”.

Turning to `C=CCc1ccc(O)c(-c2cc(CC=C)ccc2O)c1` [Magnolol, magnolol], in the data set on GPC glucuronidation, the inhibition (as a rule, the percentage by which the read-out fell short of the control) at 30 min, 200 μM was 50%. For the same molecule, the “inhibition of GPC glucuronidation (in words)” value (“inhibition … (in words)” below) in data set [26] (inhibitor 1–50 μM) is on record as “insignificant inhibition”.

For the molecule `OC(Cn1cncn1)(Cn1cncn1)c1ccc(F)cc1F` [fluconazole], in data set [26] (setting [27]), the “inhibition … (in words)” value is reported as “Neither fluconazole nor phenylbutazone inhibited”.

With `CCCCC1C(=O)N(c2ccccc2)N(c2ccccc2)C1=O` [phenylbutazone], the “inhibition … (in words)” value in data set [26] (setting [27]) was “Neither fluconazole nor phenylbutazone inhibited”.

For hecogenin, the “inhibition of GPC glucuronidation” value in [26] (inhibitor 1 μM) is “more than 40%”; in [26] (inhibitor 10 μM), 70%.

These data come from article PMC9865363, “Identification of Human UDP-Glucuronosyltransferase Involved in Gypensapogenin C Glucuronidation and Species Differences” (International Journal of Molecular Sciences, 2023).
